Patent US20230390319A1, “INTERFERON GENE STIMULATOR COMPOSITION COMPRISING INDOLIZINE DERIVATIVE AS ACTIVE INGREDIENT” (AJOU UNIVERSITY INDUSTRY-ACADEMIC COOPERATION FOUNDATION, priority 2020, published 2023)
“Also recorded” adds a separate entry of the source.

What was measured:
ISRE reporter signal = assay: ISRE luciferase reporter assay, THP-1 cells co-treated with compound and cGAMP; type: cell-based, Human
In short: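 STING-competent THP-1 cells were co-treated with compound plus cGAMP (1 μg/ml) for 24 h. ISRE-driven luciferase in the culture supernatant was read by QUANTI-Luc luminescence. Signal was normalized to DMSO control and compared against cGAMP-alone treatment.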

THP-1 cells = assay: Cell viability assay (CellTiter Clo) in THP-1 cells; type: cell-based, Human
In short: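 Wild-type or STING-knockout human monocytic THP-1 cells co-treated with compound plus cGAMP (1 μg/ml). Viability measured with CellTiter-Glo reagent on a plate reader and normalized to DMSO control.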

STING KO cell line = assay: ISRE reporter assay in THP-1 STING KO cell line; type: cell-based, Human; conditions: co-treatment with cGAMP, FIG. 1
Protocol: Human monocytic THP-1 wild-type (WT) and STING knockout (KO) cell lines were obtained from InvivoGen. Cells were cultured in 1×RPMI 1640 medium containing 10% fetal bovine serum (FBS, Hyclone), 2.05 mM L-glutamine (Hyclone) and 1% penicillin (Corning) in a humidified incubator at 37° C. under 5% CO2.
To confirm immune responses, THP-1 cells were placed in 384-well plates (Grenier), and treated with each compound and cGAMP (1 μg/ml), and after 24 hours, ISRE activity was analyzed. QUANTI-Luc assay (InvivoGen) was performed using the cell culture supernatant to confirm the luciferase reporter gene signal. Fluorescent signals were measured using a TECAN micro plate reader SPARK, and the results were normalized to DMSO control.

[1] = system: IFNB, CXCL10, IFIT3, ISG15, IRF7 and OAS1; assay: Gene expression analysis by real-time quantitative PCR in THP-1 cells; type: cell-based, Human; conditions: with cGAMP (1 μg/ml), 6 hours, FIG. 4
Protocol: To confirm gene expression, THP-1 cells were placed in a 24-well plate (SPL) and treated with the compound of the present invention and cGAMP (1 μg/ml) for 6 hours. After culturing, RNA was extracted from the cells using NucleoSpin RNA Plus (MN). mRNA expression levels of IFNB, CXCL10, IFIT3, ISG15, IRF7 and OAS1 were measured by real-time qPCR (CFX96 Real-Time PCR Detection System, Bio-Rad) using IQ SYBR Green Supermix (Bio-Rad). GAPDH was used as a housekeeping gene to normalize cytokine mRNA levels.

IRF3, STAT1 = assay: Western blot analysis of TBK, IRF3 and STAT1 activity; type: cell-based; conditions: induced by cGAMP, FIG. 5
Protocol: Cells were cultured and lysed in RIPA buffer containing a protease and phosphatase inhibitor cocktail (Thermo Fisher Scientific) and benzonase nuclease (Sigma). After centrifugation, the supernatant was collected, and the amount of protein was measured using a BCA protein assay kit (Thermo Fisher Scientific). Cell lysates were analyzed by SDS-PAGE using an acrylamide gel. After SDS-PAGE, proteins were transferred to a PVDF membrane, blocked with 5% BSA, and then washed with TBST. The membrane was incubated with primary antibodies (anti-STING, anti-pSTING, anti-TBK, anti-pTBK, anti-IRF3, anti-pIRF3, anti-STAT1, anti-pSTAT1, and anti-actin) overnight at 4° C. After washing with TBST, the membrane was treated with HRP-conjugated secondary antibodies at room temperature for 1 hour. The membrane was washed with TBST and treated with ECL solution (Thermo Fisher Scientific). Chemical fluorescence images were taken with ChemiDOC (Bio-Rad).

STING = assay: Activity comparison with STING pathway-activating therapeutic agent MV658; type: cell-based; conditions: compared with ENPP inhibitor MV658, FIG. 6
4T1 tumor cells = assay: In vivo anticancer activity, 4T1 tumor in BALB/c mice; conditions: Compound 42 20 mg/kg intravenous once daily + cGAMP 2 μg intratumoral every 4 days, compared to cGAMP alone, FIG. 7
Protocol: Eight-week-old female BALB/c mice (DBL) were used for experiments and inoculated subcutaneously with 0.5×10^6 4T1 tumor cells using PBS as the vehicle on the right flank. Following tumor implantation, mice were randomized into treatment groups, each consisting of N=4 (vehicle N=1). On day 5 after tumor cell injection, when the tumor volume reached about 100 mm^3, Compound 42 or vehicle was administrated by intravenous injection (20 mg/kg) or vehicle (5% DMSO, 5% Tween 80 in PBS). 2′3′-cGAMP (InvivoGen) was injected by intratumoral injection (2 μg in PBS). Compound 42 was injected once daily, and cGAMP was injected once every 4 days. Tumor and body weight measurements were performed using digital calipers and a weigh scale, respectively. Tumor volume was estimated using the following Equation 1:
Tumor volume=(length×width^2)/2 [Equation 1]
Mice were euthanized when the tumor volume reached about 2,000 mm^3.

## CC(=O)c1ccc(-c2cc(C(=O)c3ccc(C(F)(F)F)cc3)n3ccccc23)cc1 [Compound 42]
ISRE reporter signal; THP-1 WT, co-treatment with cGAMP, FIG. 1
  ISRE reporter effect in WT cell line: increased effect
ISRE reporter signal; THP-1 cells, 20 μM of each compound, co-treated with cGAMP (1 μg/ml), 24 hours
  Normalized RU (relative unit of ISRE reporter signal): 9.32
ISRE reporter signal; co-administered with cGAMP, among 86 indolizine derivatives
  efficacy in ISRE reporter assay: highest efficacy
THP-1 cells; THP-1 cells, 20 μM of each compound, co-treated with cGAMP (1 μg/ml)
  Normalized cell viability: 1.20
THP-1 cells; co-treatment with cGAMP
  cytotoxicity of co-treatment: no cytotoxicity; also recorded: did not cause toxicity
STING KO cell line
  ISRE reporter effect in STING KO cell line: no effect
[1]
  cGAMP-induced expression of interferon-stimulated genes (IFN-beta, IP-10, ISG15, IRF7, IFIT3, OAS1): significantly increased
IRF3, STAT1
  phosphorylation of IRF3 and STAT1: increased phosphorylation of IRF3 and phosphorylation of STAT1
STING
  degree of STING-dependent immune response activation: better activity
4T1 tumor cells
  tumor volume: effectively reduced the tumor volume
